Measured values published in patent publication US20100216751A1 (priority 2007, published 2010).

Experiment: Pharmacokinetic evaluation of liquid bevirimat dosage forms, oral gavage, male Cynomolgus monkeys
Details: male, cynomolgus monkey, in vivo, po; for concentration at 72 hr: BLOQ=below 50 ng/mL; for AUC: AUCall
Experimental: Six male Cynomolgus monkeys having an initial body weight of about 3.5 to about 4.5 kg are allowed 7 days to acclimate to their individual housing units. Monkeys are supplied with water and a commercial diet ad libitum prior to the study initiation. Food is withheld from the monkeys for a minimum of twelve hours before the study and during the study until four hours postdose when food is returned. Water is supplied ad libitum.
Test formulations are administered to the monkeys at time 0 on appropriate days. Test formulations will be dosed orally via oral gavage or intravenously.
Samples are drawn at the frequencies indicated below. Each blood sample (0.5 mL) is collected from the monkey's saphenous vein via a butterfly catheter and placed into a chilled polypropylene tube containing sodium heparin as the anticoagulant. Blood samples are centrifuged at a temperature of 4° C. at a speed of 3,000 rpm for 15 minutes. All samples are maintained chilled throughout processing. Plasma is collected after centrifugation, pipetted into a 2-mL polypropylene microtube, and frozen on dry-ice pending analytical evaluation.

[1] = 50 mg FAE/monkey, Plasma concentration, 12.5 mg FAE/mL in 10% HPβCD, 50 mg FAE/monkey oral gavage, monkeys 186,116,120,AVG
[2] = 50 mg FAE/monkey, Plasma concentration, 12.5 mg FAE/mL in 15% EtOH:0.5% TPGS:15% PG:5% Glycerin, 0.2% Povidone K90, 50 mg FAE/monkey oral gavage, monkeys 117,118,119,AVG
[3] = 50 mg FAE/monkey, Plasma concentration, 25 mg/mL in 30% EtOH:1% TPGS:30% PG:10% Glycerin, 50 mg FAE/monkey oral gavage, monkeys 117,118,119,AVG
[4] = 50 mg FAE/monkey, Plasma concentration, 50 mg FAE/mL in 40% EtOH:40% PG:20% Glycerol, 50 mg FAE/monkey oral gavage, monkeys 117,118,119,AVG
[5] = 50 mg, 12.5 mg FAE/mL in 10% HPβCD, 50 mg FAE/monkey oral gavage, monkeys 186,116,120,AVG
[6] = 50 mg, 12.5 mg FAE/mL in 15% EtOH:0.5% TPGS:15% PG:5% Glycerin, 0.2% Povidone K90, 50 mg FAE/monkey oral gavage, monkeys 117,118,119,AVG
[7] = 50 mg, 12.5 mg FAE/mL in 40% PG, 20% Glycerin, 0.25% Tween80, 0.2% Povidone K15, 50 mg FAE oral gavage, monkeys 186,116,120,AVG

C=C(C)[C@@H]1CC[C@]2(C(=O)O)CC[C@]3(C)[C@H](CC[C@@H]4[C@@]5(C)CC[C@H](OC(=O)CC(C)(C)C(=O)O)C(C)(C)[C@@H]5CC[C@]43C)[C@@H]12 [Bevirimat, 3-O-(3′,3′-dimethylsuccinyl)betulinic acid]
concentration at 2 hr [1]: 59200 ng/mL
concentration at 2 hr [2]: 51300 ng/mL
concentration at 2 hr [3]: 56700 ng/mL
concentration at 2 hr [4]: 25800 ng/mL
concentration at 2 hr (50 mg FAE/monkey, Plasma concentration, 50 mg FAE/mL in 40% PG:20% Glycerin:1% TPGS:5% Tween 80 in SWFI, 50 mg FAE/monkey oral gavage, monkeys 117,118,119,AVG): 17900 ng/mL
concentration at 4 hr [1]: 35000 ng/mL
concentration at 4 hr [2]: 33100 ng/mL
concentration at 6 hr [1]: 20700 ng/mL
concentration at 6 hr [2]: 23100 ng/mL
concentration at 8 hr (50 mg FAE/monkey, Plasma concentration, 8.0 hr, 12.5 mg FAE/mL in 10% HPβCD, 50 mg FAE/monkey oral gavage, monkeys 186,116,120,AVG): 13000 ng/mL
concentration at 24 hr (50 mg FAE/monkey, Plasma concentration, 24 hr, 12.5 mg FAE/mL in 10% HPβCD, 50 mg FAE/monkey oral gavage, monkeys 186,116,120,AVG): 1560 ng/mL
concentration at 72 hr [1]: 120 ng/mL
concentration at 72 hr (50 mg FAE/monkey, Plasma concentration, 12.5 mg FAE/mL in 15% EtOH:0.5% TPGS:15% PG:5% Glycerin, 50 mg FAE/monkey oral gavage, monkeys 117,118,119,AVG): 233 ng/mL
concentration at 72 hr [3]: 69.3 ng/mL
concentration at 72 hr [4]: 76 ng/mL
AUC [5]: 348 µg·h/mL
AUC [6]: 488 µg·h/mL
AUC [7]: 212 µg·h/mL
Cmax [5]: 59200 ng/mL
Cmax [6]: 51300 ng/mL
Cmax (50 mg, 12.5 mg FAE/mL in 15% Ethanol, 30% PG, 10% Glycerin, 50 mg FAE oral gavage, monkeys 117,118,119,AVG): 64100 ng/mL
Cmax [7]: 42800 ng/mL
Cmax (50 mg, 12.5 mg FAE/mL in 40% PG, 20% Glycerin, 1% TPGS, 0.25% Tween80, 0.2% Povidone K15, 50 mg FAE/monkey oral gavage, monkeys 117,118,119,AVG): 93300 ng/mL
Cmax (50 mg, 50 mg FAE/mL in 40% EtOH:40% PG:20% Glycerol, 50 mg FAE/monkey oral gavage, monkeys 117,118,119,AVG): 25800 ng/mL
Cmax (50 mg, 50 mg/monkey, PG/glycerin/Vitamin ETPGS/Tween80/Plasdone C15 formulation, AVG): 62400 ng/mL
Cmax (50 mg, 50 mg/monkey, PG/glycerin/Vitamin ETPGS/Tween80/Plasdone C15 formulation, individual monkey): 55100 ng/mL
Cmax (50 mg, 50 mg/monkey, PG/glycerin/Vitamin ETPGS/ethanol formulation, AVG): 60100 ng/mL
Cmax (50 mg, 50 mg/monkey, PG/glycerin/Vitamin ETPGS/ethanol formulation, individual monkey): 58900 ng/mL
half-life (50 mg, t1/2, 12.5 mg FAE/mL in 10% HPβCD, 50 mg FAE/monkey oral gavage, monkeys 186,116,120,AVG): 9.9 h
half-life (50 mg, t1/2, 12.5 mg FAE/mL in 15% EtOH:0.5% TPGS:15% PG:5% Glycerin, 50 mg FAE/monkey oral gavage, monkeys 117,118,119,AVG): 12 h
half-life (50 mg, t1/2, 12.5 mg FAE/mL in 15% EtOH:0.5% TPGS:15% PG:5% Glycerin, 0.2% Povidone K90, 50 mg FAE/monkey oral gavage, monkeys 117,118,119,AVG): 12.2 h
half-life (50 mg, t1/2, 12.5 mg FAE/mL in 15% Ethanol, 30% PG, 10% Glycerin, 50 mg FAE oral gavage, monkeys 117,118,119,AVG): 8.9 h
half-life (50 mg, t1/2, 12.5 mg FAE/mL in 40% PG, 20% Glycerin, 0.25% Tween80, 0.2% Povidone K15, 50 mg FAE oral gavage, monkeys 186,116,120,AVG): 8 h
half-life (50 mg, t1/2, 12.5 mg FAE/mL in 40% PG, 20% Glycerin, 1% TPGS, 0.25% Tween80, 50 mg FAE/monkey oral gavage, monkeys 186,116,120,AVG): 9.9 h
half-life (50 mg, t1/2, 12.5 mg FAE/mL in 40% PG, 20% Glycerin, 1% TPGS, 0.25% Tween80, 0.2% Povidone K15, 50 mg FAE/monkey oral gavage, monkeys 117,118,119,AVG): 10.4 h
half-life (50 mg, t1/2, 25 mg/mL in 30% EtOH:1% TPGS:30% PG:10% Glycerin, 50 mg FAE/monkey oral gavage, monkeys 117,118,119,AVG): 10.6 h
half-life (50 mg, t1/2, 50 mg FAE/mL in 40% EtOH:40% PG:20% Glycerol, 50 mg FAE/monkey oral gavage, monkeys 117,118,119,AVG): 9.8 h
half-life (50 mg, t1/2, 50 mg FAE/mL in 40% PG:20% Glycerin:1% TPGS:5% Tween 80 in SWFI, 50 mg FAE/monkey oral gavage, monkeys 117,118,119,AVG): 11.8 h
half-life (50 mg, t1/2, 10% HPβCD, 50 mg FAE/monkey oral gavage, monkeys 117,118,119,AVG): 10 h
half-life (50 mg, t1/2, oral, 50 mg/monkey, PG/glycerin/Vitamin ETPGS/Tween80/Plasdone C15 formulation, AVG): 6.4 h
half-life (50 mg, t1/2, oral, 50 mg/monkey, PG/glycerin/Vitamin ETPGS/Tween80/Plasdone C15 formulation, individual monkey): 8.6 h
half-life (50 mg, t1/2, oral, 50 mg/monkey, PG/glycerin/Vitamin ETPGS/ethanol formulation, AVG): 6.9 h
half-life (50 mg, t1/2, oral, 50 mg/monkey, PG/glycerin/Vitamin ETPGS/ethanol formulation, individual monkey): 6.2 h
Tmax (50 mg, tmax, 12.5 mg FAE/mL in 40% PG, 20% Glycerin, 1% TPGS, 0.25% Tween80, 0.2% NaCMC, 50 mg FAE/monkey oral gavage, monkeys 117,118,119,AVG): 1 h
concentration at 0.25 h (50 mg/monkey, Plasma Concentration, PG/glycerin/Vitamin ETPGS/Tween80/Plasdone C15 formulation, AVG): 64.6 ng/mL
concentration at 0.25 h (50 mg/monkey, Plasma Concentration, PG/glycerin/Vitamin ETPGS/Tween80/Plasdone C15 formulation, individual monkey): 69.8 ng/mL
concentration at 0.5 h (50 mg/monkey, Plasma Concentration, PG/glycerin/Vitamin ETPGS/Tween80/Plasdone C15 formulation, 0.50 hr, AVG): 3550 ng/mL
